Results as given in patent US20050065114A1, “Therapeutical treatment with oligo-beta- (1,3) -glucans, drugs used in said treatment” (priority 2003, published 2005).
Values joined by “and” are separate entries in the source; they are usually repeats but may differ in a detail not shown here. Equal values may be shown once.

Assays:
Format in all cases: in vivo, Balb/c mice
[1] = test system: peritoneal cells (macrophages, lymphocytes, mast cells); test: Differential count in peritoneal cells; settings: for % of lymphocytes / % of macrophages / % of mast cells: peritoneal cells 24 hrs after i.p. injection
Experimental: (§1) Using the same experimental groups as described above in Example 4, two extra microscopic slides from each experimental sample were prepared. After Accustain (modified Wright stain, Sigma) staining, the slides were evaluated using the optical microscope for presence of individual types of cells, i.e. macrophages, lymphocytes and mast cells.

[2] = test system: peritoneal macrophages; test: Phagocytosis of HEMA particles by cells from peritoneal cavity after intraperitoneal injection; settings: for % of phagocytosing macrophages: peritoneal cells 24 hrs after i.p. injection
Experimental: A group of Balb/c mice (Jackson laboratory, Bar Harbor, Me., USA) has been injected intraperitoneally with either PBS (control), Laminaritetraose or Laminaripentaose. 24 hrs later, mice were sacrificed, peritoneal cells were collected into Hanks medium (Sigma).
After counting the cells in hemocytometer, the peritoneal cells were diluted to lxlO7 cells in RPMI 1640 medium (Sigma) with 5% fetal calf serum (Hyclone, Logan, Utah, USA).
2×10^6 cells in 0.2 ml of RPMI 1640 medium supplemented with 5% fetal calf serum were mixed with the same volume of HEMA particles (5×10^8/ml).
The suspension was incubated for 60 minutes at 37° C. with occasional agitation. Incubation was terminated by centrifugation (150 g for 5 minutes) and the pellet was resuspended.
Macrophages with ingested particles were scored under the optical microscope in smears after Accustain (modified Wright stain, Sigma) staining.
Cells with six or more engulfed particles were considered to be positive.

[3] = test system: TNF-alpha; test: Cytokine level in peripheral blood: TNF-alpha in serum by OptEIA Mouse TNF-alpha ELISA; settings: for TNF-alpha level (Table 6, same experiments as Table 5): 250 μg/mouse, unit not given in Table 6 (Table 5: pg/ml); for Relative activity on TNF-alpha level (in words): comparison between substances, Table 6, 24 and 48 h
Experimental: Balb/c mice were intraperitoneally injected with 50 μg of Laminaritetraose, Laminaripentaose, Laminarin or Lentinan (purchased from NIH, Bethesda, Md., USA) in PBS.
After various time intervals (30, 60 and 90 minutes, respectively), after the injection of Laminaritetraose, Laminaripentaose, Laminarin, Lentinan only, the mice were killed and blood was collected in Eppendorf tubes.
Subsequently, the serum of the collected blood was separated, collected and stored at −80° C. for no more than 1 week.
The level of TNF-alpha in the serum samples was evaluated using a commercial kit marketed as OptEIA Mouse TNF-alpha (Mono/Mono) Set by the Company Pharmingen, San Diego, Calif., USA); the manufacturer's instructions were followed.
In connection with the experiments carried out by Applicants, Balb/c mice were intraperitoneally injected with various doses (50, 100, and 250 μg) of Soluble laminarin and Lentinan (from NIH, Bethesda, Md., USA) in PBS.
Control mice were treated with PBS only. […]
Subsequently, the serum was prepared, collected and stored at −80° C. for no more than 1 week.
The level of TNF-alpha in serum samples was evaluated using a commercial kit marketed as OptEIA Mouse TNF-alpha (Mono/Mono) Set by the Company Pharmingen, San Diego, Calif., USA); the manufacturer's instructions were followed.
In that respect, The wells of 96-well plates were coated with 0.1 ml/well of capture antibody (provided in the above kit) diluted in coating buffer (also provided in the above kit); the expression “capture antibody” designates first antibody used for coating of wells; this antibody captures the tested cytokines from the solution; in this assay it was anti-mouse-TNF-alpha monoclonal antibody.
The plates were sealed and incubated overnight at 4° C.
Individual wells were emptied by aspiration and washed 3 times with over 300 el/well of wash buffer (also provided in the kit).
Reaction was blocked with 200 el/well of assay dilutant diluent (also provided in the kit) and by incubation for 60 minutes at room temperature.
Again, individual wells were emptied by aspiration and washed 3 times with over 300 el/well of the same wash buffer.
Standards (also provided in the kit) and samples of serum were diluted in assay diluent (also provided in the kit) and pipetted (100 μl/well) in appropriate wells; as far as the dissolution rate is concerned standards (part of the kit) were diluted according to the instructions into following concentrations: 1000 pg/ml, 500 pg/ml, 250, 125, 62.5, 31.3, and 15.6 pg/ml.
The plates were sealed and incubated for 60 minutes at room temperature. Individual wells were aspirated and washed 3 times with over 300 μl/well of the same wash buffer. A quantity of 100 μl/well of a working detector (antibody-avidin-HRP conjugate also provided in the kit) was added into each well.
The plates were sealed with plastic foils and incubated for 60 minutes at room temperature. Individual wells were emptied by aspiration and washed 3 times with over 300 μl/well of same wash buffer.
A quantity of 100 μl/well of substrate solution (also provided in the kit) was added to each well and the plates were incubated for 30 minutes in the dark at room temperature; “substrate solution” is formed by mixing a substrate reagent A containing hydrogen peroxide and Substrate reagent B containing 3,3′,5,5′-tetramethylbenzidine in organic solvent; when mixed together, the reagent reacts with peroxidase-labeled conjugates to develop a blue color.
A quantity of 50 μl/well of stop solution provided in the kit and adapted to stop the reaction was added to each well and the optical density was determined using a STL ELISA reader (marketed by Tecan U.S., Research Triangle Park, N.C.) at 450 nm with a correction at 570 nm.
The concentration of TNF-alpha, in pg/ml, in the blood of the mice treated as hereabove disclosed has been determined at the following moments: 30, 60 and 90 minutes after the injection of Laminaritetraose, Laminaripentaose, Lentinan and control. […]

[4] = test system: peripheral blood cells (monocytes, lymphocytes, granulocytes); test: Differential count in blood; settings: for % of granulocytes / % of lymphocytes / % of monocytes: peripheral blood 24 hrs after i.p. injection
Experimental: as §1, with “3,” for “4,”, “monocytes,” for “macrophages,”, “granulocytes.” for “mast cells.”

[5] = test system: cells from peripheral blood (monocytes, granulocytes); test: Phagocytosis of HEMA particles by cells from peripheral blood after intraperitoneal injection; settings: for % of phagocytosing granulocytes / % of phagocytosing monocytes: peripheral blood 24 hrs after i.p. injection
Experimental: A group of Balb/c mice (Jackson laboratory, Bar Harbor, ME, USA) has been injected intraperitoneally with either PBS (Control; Sigma, St. Louis, Mo., USA), Laminaritetraose or Laminaripentaose. 24 hrs later, mice were sacrified, peripheral blood from the orbital plexus was collected into heparine (5 IU/ml) (Sigma).
After counting, a test of phagocytosis of HEMA particles (synthetic microspheres prepared from 2-hydroxyethylmethacrylate copolymer) was performed as described in: Rembaum et al., 1976, Vetvicka et al. 1982, Bilej et al., 1989.
0.1 ml of heparinized fresh blood was added to 0.05 ml of diluted HEMA particles (5×10^8/ml) and incubated for 60 minutes at 37° C. with occasional gentle agitation.
After the end of incubation, the cell suspension was smeared over microscope slides. Smears were evaluated under the optical microscope after Accustain (modified Wright stain, Sigma) staining.
Cells with at least three engulfed particles were considered to be positive.

[6] = individual values, cells with at least three engulfed HEMA particles positive
[7] = mean, at least three engulfed HEMA particles

## OC[C@H]1O[C@@H](O[C@@H]2[C@@H](O)[C@H](O[C@@H]3[C@@H](O)[C@H](O[C@@H]4[C@@H](O)[C@H](O[C@@H]5[C@@H](O)[C@H](O)O[C@H](CO)[C@H]5O)O[C@H](CO)[C@H]4O)O[C@H](CO)[C@H]3O)O[C@H](CO)[C@H]2O)[C@H](O)[C@@H](O)[C@@H]1O [Laminaripentaose, β-D-glucopyranosyl-(1→3)-β-D-glucopyranosyl-(1→3)-β-D-glucopyranosyl-(1→3)-β-D-glucopyranosyl-(1→3)-β-D-glucopyranose]
[1]; individual values
  % of lymphocytes: 48.1% and 48.0% and 34.7%
  % of macrophages: 50.4% and 48.1% and 59.8%
  % of mast cells: 1.5% and 3.9% and 5.5%
[1]; mean
  % of lymphocytes: 43.4%
  % of macrophages: 52.8%
  % of mast cells: 3.6%
[1]; versus PBS control
  Effect on migration of macrophage into the peritoneal cavity (in words): stimulate the migration of macrophage
[2]; individual values, cells with six or more engulfed HEMA particles positive
  % of phagocytosing macrophages: 54.9% and 57.3% and 62.7%
[2]; mean, six or more engulfed HEMA particles
  % of phagocytosing macrophages: 58.3%
[2]; peritoneal cells, versus PBS control
  Effect on phagocytosis of peritoneal macrophages (in words): strongly stimulate phagocytosis
[3]; 50 μg/mouse i.p., 30 min
  Concentration of TNF alpha in blood of treated mice: 34.3 pg/mL
[3]; 50 μg/mouse i.p., 60 min
  Concentration of TNF alpha in blood of treated mice: 37.0 pg/mL
[3]; 50 μg/mouse i.p., 90 min
  Concentration of TNF alpha in blood of treated mice: 71.3 pg/mL
[3]; 100 μg/mouse i.p., 30 min
  Concentration of TNF alpha in blood of treated mice: 53.0 pg/mL
[3]; 100 μg/mouse i.p., 60 min
  Concentration of TNF alpha in blood of treated mice: 46.5 pg/mL
[3]; 100 μg/mouse i.p., 90 min
  Concentration of TNF alpha in blood of treated mice: 93.2 pg/mL
[3]; 250 μg/mouse i.p., 30 min
  Concentration of TNF alpha in blood of treated mice: 42.1 pg/mL
[3]; 250 μg/mouse i.p., 60 min
  Concentration of TNF alpha in blood of treated mice: 36.4 pg/mL
[3]; 250 μg/mouse i.p., 90 min
  Concentration of TNF alpha in blood of treated mice: 24.4 pg/mL
[3]; 24 hours
  TNF-alpha level (Table 6, same experiments as Table 5): 79.6 pg/mL
[3]; 48 hours
  TNF-alpha level (Table 6, same experiments as Table 5): 38.7 pg/mL
[3]
  Relative activity on TNF-alpha level (in words): more active than Laminaritetraose
[3]; listed as laminaripentaose
  Relative activity on TNF-alpha level (in words): more active than yest derived glucan (Lentinan)
[3]; low doses, indirect activation of macrophages and cytotoxic T lymphocytes
  Increase of TNF-alpha secretion compared with Lentinan (in words): significantly higher
[4]; individual values
  % of granulocytes: 33.8% and 35.9% and 36.9%
  % of lymphocytes: 57.1% and 54.1% and 53.3%
  % of monocytes: 9.1% and 1.0% and 9.8%
[4]; mean
  % of granulocytes: 35.5%
  % of lymphocytes: 54.8%
  % of monocytes: 9.4%
[4]; versus PBS control
  Effect on number of granulocytes in the peripheral blood (in words): increase the number of granulocytes
[5]; [6]
  % of phagocytosing granulocytes: 40.8% and 42.5% and 46.4%
  % of phagocytosing monocytes: 41.6% and 43.1% and 49.6%
[5]; [7]
  % of phagocytosing granulocytes: 43.2%
  % of phagocytosing monocytes: 44.8%
[5]; peripheral blood, versus PBS control
  Effect on phagocytosis in monocytes and granulocytes (in words): strongly stimulate phagocytosis

## Lentinan [reference compound]
[3]; 50 μg/mouse i.p., 30 min
  Concentration of TNF alpha in blood of treated mice: 20 pg/mL
[3]; 50 μg/mouse i.p., 60 min
  Concentration of TNF alpha in blood of treated mice: 15.7 pg/mL
[3]; 50 μg/mouse i.p., 90 min
  Concentration of TNF alpha in blood of treated mice: 32.0 pg/mL
[3]; 100 μg/mouse i.p., 30 min
  Concentration of TNF alpha in blood of treated mice: 28 pg/mL
[3]; 100 μg/mouse i.p., 60 min
  Concentration of TNF alpha in blood of treated mice: 30.7 pg/mL
[3]; 100 μg/mouse i.p., 90 min
  Concentration of TNF alpha in blood of treated mice: 20.3 pg/mL
[3]; 250 μg/mouse i.p., 30 min
  Concentration of TNF alpha in blood of treated mice: 86.3 pg/mL
[3]; 250 μg/mouse i.p., 60 min
  Concentration of TNF alpha in blood of treated mice: 68.7 pg/mL
[3]; 250 μg/mouse i.p., 90 min
  Concentration of TNF alpha in blood of treated mice: 48.6 pg/mL
